Legend:
[1] = storage stability of amorphous carfilzomib; type: physicochemical; details: at 2-8° C.
Experimental: Carfilzomib amorphous form obtained according to the process of the present application is stable at 2-8° C. for extended periods, i.e., more than 3 month.

[2] = tested on: models of multiple myeloma, hematologic, and solid tumors; details: in animals; cited from earlier work
[3] = tested on: solid and hematologic tumor cells; details: cited from earlier work
proteasome = details: in animals; cited from earlier work

stable for extended periods [1]	SMILES	tumor growth [2]	activity in vitro in tumor cells [3]	proteasome activity in blood and tissue (proteasome)
more than 3 month	CC(C)C[C@H](NC(=O)[C@H](CCc1ccccc1)NC(=O)CN1CCOCC1)C(=O)N[C@@H](Cc1ccccc1)C(=O)N[C@@H](CC(C)C)C(=O)[C@@]1(C)CO1 [Carfilzomib amorphous form]	–	–	–
–	CC(C)C[C@H](NC(=O)[C@H](CCc1ccccc1)NC(=O)CN1CCOCC1)C(=O)N[C@@H](Cc1ccccc1)C(=O)N[C@@H](CC(C)C)C(=O)[C@@]1(C)CO1 [Carfilzomib, (2S)—N—((S)-1-((S)-4-methyl-1-((R)-2-methyloxiran-2-yl)-1-oxopentan-2-ylcarbamoyl)-2-phenylethyl)-2-((S)-2-(2-morpholinoacetamido)-4-phenylbutanamido)-4-methylpentanamide]	delayed tumor growth	antiproliferative and proapoptotic activities	inhibited proteasome activity

From patent US10301353B2, “Co-crystal of carfilzomib with maleic acid and process for the preparation of pure carfilzomib” (DR. REDDY'S LABORATORIES LIMITED, priority 2014, dated 2019)
